Here are results for 29 compounds from patent publication US11725010B2, “Polyheterocyclic compounds as METTL3 inhibitors” (Storm Therapeutics Limited, priority 2019, dated 2023).

In one experiment the target is METTL3/14 (Homo sapiens (Human), UniProt Q86U44).
A further experiment deals with Caov-3 cells. Nature of the experiment: Caov3 CTG proliferation assay. The class given is cell-based. The following applies: Homo sapiens. How it is done:
CTG Assay (Caov3 Cell Line)
Upon treatment, Coav-3 cells were incubated for 10 min at RT with the CellTiter-Glo reagent (G7571, Promega). Measurement of the luminescence signal was performed on a microplate reader (Ensight, PerkinElmer).
Caov3 CTG Assay—Proliferation Assay

In a further experiment the test system is KASUMI-1 cells. The experiment is described as follows: Kasumi cell assay (CellTiter-Glo cell growth). The class given is cell-based. The settings on record: Homo sapiens, Kasumi 1; treated for 120 hours, CellTiter-Glo luminescence; read-out: KASUMI1 cells IC50. How it is done:
Upon treatment, Kasumil cells were incubated for 10 min at RT with the CellTiter-Glo reagent (G7571, Promega). Measurement of the luminescence signal was performed on a microplate reader (Ensight, PerkinElmer).

The mark [1] stands for this setting: Caov-3, treated for 120 hours, CellTiter-Glo luminescence, read-out: Caov3 cells IC50.
The mark [2] stands for this setting: Caov-3, 120 h, read-out: Caov3 cells IC50 nM.

The term IC50 denotes the concentration that gives 50% inhibition.

Like-named read-outs stand apart in the source and are kept apart here.

Chain of METTL3/14 (Q86U44 whole entry): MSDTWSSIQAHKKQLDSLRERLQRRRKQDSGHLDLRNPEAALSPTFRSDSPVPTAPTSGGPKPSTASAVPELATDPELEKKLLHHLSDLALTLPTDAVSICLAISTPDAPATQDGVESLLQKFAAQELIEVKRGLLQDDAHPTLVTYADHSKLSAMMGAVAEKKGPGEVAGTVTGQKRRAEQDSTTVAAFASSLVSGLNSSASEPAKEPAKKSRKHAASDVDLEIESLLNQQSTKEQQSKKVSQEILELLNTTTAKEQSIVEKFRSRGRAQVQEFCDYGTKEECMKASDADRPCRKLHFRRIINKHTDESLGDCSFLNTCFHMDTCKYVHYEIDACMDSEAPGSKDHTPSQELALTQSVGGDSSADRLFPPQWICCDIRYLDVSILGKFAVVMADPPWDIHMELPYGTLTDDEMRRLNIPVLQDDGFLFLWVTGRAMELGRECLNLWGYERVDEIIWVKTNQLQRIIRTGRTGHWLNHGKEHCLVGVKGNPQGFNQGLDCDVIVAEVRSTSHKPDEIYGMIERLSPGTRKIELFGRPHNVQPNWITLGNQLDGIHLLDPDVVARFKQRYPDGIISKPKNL
Chain of METTL3/14 (Q9HCE5 whole entry partner): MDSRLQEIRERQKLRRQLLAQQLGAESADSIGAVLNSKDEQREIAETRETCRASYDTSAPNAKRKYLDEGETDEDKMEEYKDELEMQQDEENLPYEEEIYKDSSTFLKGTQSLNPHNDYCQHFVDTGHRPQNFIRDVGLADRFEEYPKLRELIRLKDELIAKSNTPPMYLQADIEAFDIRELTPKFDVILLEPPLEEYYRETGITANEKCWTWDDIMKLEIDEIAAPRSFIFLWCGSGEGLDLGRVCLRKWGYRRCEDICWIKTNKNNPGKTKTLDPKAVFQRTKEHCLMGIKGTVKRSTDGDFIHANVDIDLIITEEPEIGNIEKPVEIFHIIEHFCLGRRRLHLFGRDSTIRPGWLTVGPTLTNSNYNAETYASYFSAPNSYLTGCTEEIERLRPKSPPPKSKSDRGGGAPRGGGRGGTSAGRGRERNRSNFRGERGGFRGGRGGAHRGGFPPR

With `O=C(NCc1ccc2cc(CNCC3CC(F)(F)C3)[nH]c2c1)c1cc(=O)n2ccccc2n1` [Compound 3, N-[[2-[[(3,3-difluorocyclobutyl)methylamino]methyl]-1H-indol-6-yl]methyl]-4-oxo-pyrido[1,2-a]pyrimidine-2-carboxamide], at METTL3/14, the IC50 was 6.1 nM.
Same read-out and setting: the value for `O=C(NCc1ccc2cc(CNCC3(O)CCC3)[nH]c2c1)c1cc(=O)n2ccccc2n1` [Compound 4, N-[[2-[[(1-hydroxycyclobutyl)methylamino]methyl]-1H-indol-6-yl]methyl]-4-oxo-pyrido[1,2-a]pyrimidine-2-carboxamide] was 6.1 nM.
As to `O=C(NCc1ccc2cc(CNC34CC5CC(CC(C5)C3)C4)[nH]c2c1)c1cc(=O)n2ccccc2n1` [Compound 11, N-[[2-[(1-adamantylamino)methyl]-1H-indol-6-yl]methyl]-4-oxo-pyrido[1,2-a]pyrimidine-2-carboxamide], the values for the 50% inhibitory concentration (IC50) in the experiment with Caov-3 cells (setting [1]) and against METTL3/14 were 607 nM and 6.1 nM, respectively.
In the case of `O=C(NCc1ccc2cc(CNCC3(O)CCCC3)[nH]c2c1)c1cc(=O)n2ccccc2n1` [Compound 15, N-[[2-[[(1-hydroxycyclopentyl)methylamino]methyl]-1H-indol-6-yl]methyl]-4-oxo-pyrido[1,2-a]pyrimidine-2-carboxamide], the values for the IC50 in the experiment with Caov-3 cells (setting [1]) and against METTL3/14 were 658 nM and 6.1 nM, respectively.
For `O=C(NCc1ccc2cc(CN3CC4CCC3CC4)[nH]c2c1)c1cc(=O)n2ccccc2n1` [Compound 21, N-[[2-(2-azabicyclo[2.2.2]octan-2-ylmethyl)-1H-indol-6-yl]methyl]-4-oxo-pyrido[1,2-a]pyrimidine-2-carboxamide], the IC50 in the experiment on Caov-3 cells (setting [1]) came out at 746 nM.
The same measure, in the same setting: as for `O=C(NCc1ccc2cc(CNCC3(O)CCCCC3)[nH]c2c1)c1cc(=O)n2ccccc2n1` [Compound 25, N-[[2-[[(1-hydroxycyclohexyl)methylamino]methyl]-1H-indol-6-yl]methyl]-4-oxo-pyrido[1,2-a]pyrimidine-2-carboxamide], the figure is 732 nM.
`O=C(NCc1ccc2cc(CNC3CCCC3)[nH]c2c1)c1cc(=O)n2ccccc2n1` [Compound 26, N-[[2-[(cyclopentylamino)methyl]-1H-indol-6-yl]methyl]-4-oxo-pyrido[1,2-a]pyrimidine-2-carboxamide]: the half-inhibitory concentration (IC50) in the experiment on Caov-3 cells (setting [1]) came out at 274 nM; on METTL3/14, 6.1 nM.
The corresponding values for `O=C(NCc1ccc2cc(CNCC3CCCC3)[nH]c2c1)c1cc(=O)n2ccccc2n1` [Compound 27, N-[[2-[(cyclopentylmethylamino)methyl]-1H-indol-6-yl]methyl]-4-oxo-pyrido[1,2-a]pyrimidine-2-carboxamide] are 420 nM and 6.1 nM.
For the compound `O=C(NCc1ccc2cc(CNC3CCCCC3)[nH]c2c1)c1cc(=O)n2ccccc2n1` [Compound 30, N-[[2-[(cyclohexylamino)methyl]-1H-indol-6-yl]methyl]-4-oxo-pyrido[1,2-a]pyrimidine-2-carboxamide], the IC50 against METTL3/14 is 6.1 nM.
For `CC(C)(C)CNCc1cc2ccc(CNC(=O)c3cc(=O)n4ccccc4n3)cc2[nH]1` [Compound 34, N-[[2-[(2,2-dimethylpropylamino)methyl]-1H-indol-6-yl]methyl]-4-oxo-pyrido[1,2-a]pyrimidine-2-carboxamide], the IC50 with Caov-3 cells (setting [1]) is 988 nM; at METTL3/14 it was 6.1 nM.
In the case of `O=C(NCc1ccc2cc(CN[C@H]3CCC[C@@H]3O)[nH]c2c1)c1cc(=O)n2ccccc2n1` [Compound 36, N-{[2-({[(1S,2S)-2-hydroxycyclopentyl]amino}methyl)-1H-indol-6-yl]methyl}-4-oxo-4H-pyrido[1,2-a]pyrimidine-2-carboxamide], the IC50 stood at 973 nM with Caov-3 cells (setting [2]) and 6.1 nM against METTL3/14.
On to `O[C@@H]1CCC[C@@H]1NCc1cc2ccc(Cn3cc(-c4cccc5[nH]ncc45)nn3)cc2[nH]1` [Compound 54, (1R,2S)-2-[[6-[[4-(1H-indazol-4-yl)triazol-1-yl]methyl]-1H-indol-2-yl]methylamino]cyclopentanol], for which, in the experiment with Caov-3 cells (setting [1]), the concentration for half-maximal inhibition (IC50) stood at 837 nM.
On to `c1cc(-c2cn(Cc3ccc4cc(CNC5CCCC5)[nH]c4c3)nn2)c2cn[nH]c2c1` [Compound 55, N-[[6-[[4-(1H-indazol-4-yl)triazol-1-yl]methyl]-1H-indol-2-yl]methyl]cyclopentanamine], for which the IC50 stood at 764 nM in the experiment with Caov-3 cells (setting [1]) and 6.1 nM against METTL3/14.
In the case of `OC1(CNCc2cc3ccc(Cn4cc(-c5cccc6[nH]ncc56)nn4)cc3[nH]2)CCC1` [Compound 57, 1-[[[6-[[4-(1H-indazol-4-yl)triazol-1-yl]methyl]-1H-indol-2-yl]methylamino]methyl]cyclobutanol], the half-maximal inhibitory concentration (IC50) was 1060 nM with Caov-3 cells (setting [1]) and 6.1 nM on METTL3/14.
Take `CC1(C)CN(Cc2cc3ccc(CNC(=O)c4cc(=O)n5ccccc5n4)cc3[nH]2)C1` [Compound 83, N-({2-[(3,3-dimethylazetidin-1-yl)methyl]-1H-indol-6-yl}methyl)-4-oxo-4H-pyrido[1,2-a]pyrimidine-2-carboxamide]: in the experiment on KASUMI-1 cells, the IC50 was 3680 nM.
For the compound `O=C(NCc1cnc2cc(CNCC34CC(F)(C3)C4)[nH]c2c1)c1cc(=O)n2ccccc2n1` [Compound 127, N-[(2-{[({3-fluorobicyclo[1.1.1]pentan-1-yl}methyl)amino]methyl}-1H-pyrrolo[3,2-b]pyridin-6-yl)methyl]-4-oxo-4H-pyrido[1,2-a]pyrimidine-2-carboxamide], the IC50 with Caov-3 cells (setting [1]) was determined as 624 nM; against METTL3/14, 6.1 nM.
For `CC1(C)CCN(Cc2cc3ccc(CNC(=O)c4cc(=O)n5ccccc5n4)cc3[nH]2)CC1` [Example 1, N-({2-[(4,4-dimethylpiperidin-1-yl)methyl]-1H-indol-6-yl}methyl)-4-oxo-4H-pyrido[1,2-a]pyrimidine-2-carboxamide], the IC50 with Caov-3 cells (setting [1]) came out at 260 nM.
`CC1(CNCc2cc3ccc(CNC(=O)c4cc(=O)n5ccccc5n4)cc3[nH]2)CC1` [Example 6, N-[[2-[[(1-methylcyclopropyl)methylamino]methyl]-1H-indol-6-yl]methyl]-4-oxo-pyrido[1,2-a]pyrimidine-2-carboxamide]: the half-maximal inhibitory concentration (IC50) with Caov-3 cells (setting [1]) was 756 nM; against METTL3/14 it was 6.1 nM.
As to `O=C(NCc1cnc2cc(CNCC3CCC3)[nH]c2c1)c1cc(=O)n2ccccc2n1` [Example 49, N-[[2-[(cyclobutylmethylamino)methyl]-1H-pyrrolo[3,2-b]pyridin-6-yl]methyl]-4-oxo-pyrido[1,2-a]pyrimidine-2-carboxamide], the concentration for half-maximal inhibition (IC50) in the experiment on Caov-3 cells (setting [2]) is 1060 nM.
Consider `c1cc(-c2cn(Cc3ccc4cc(CNCC5CCC5)[nH]c4c3)nn2)c2cn[nH]c2c1` [Example 58, N-(cyclobutylmethyl)-1-[6-[[4-(1H-indazol-4-yl)triazol-1-yl]methyl]-1H-indol-2-yl]methanamine], for which the concentration for half-maximal inhibition (IC50) in the experiment on Caov-3 cells (setting [1]) was found to be 702 nM; against METTL3/14 it was 6.1 nM.
As for `c1cc(-c2cn(Cc3cnc4cc(CNCC5CCC5)[nH]c4c3)nn2)c2cn[nH]c2c1` [Example 59, N-(cyclobutylmethyl)-1-[6-[[4-(1H-indazol-4-yl)triazol-1-yl]methyl]-1H-pyrrolo[3,2-b]pyridin-2-yl]methanamine], the 50% inhibitory concentration (IC50) in the experiment on Caov-3 cells (setting [1]) came to 524 nM; against METTL3/14, 6.1 nM.
The corresponding values for `O=c1cc(-c2cn(Cc3ccc4cc(CNCC5CCC5)[nH]c4c3)nn2)nc2ccccn12` [Example 62, 2-[1-[[2-[(cyclobutylmethylamino)methyl]-1H-indol-6-yl]methyl]triazol-4-yl]pyrido[1,2-a]pyrimidin-4-one] are 696 nM and 6.1 nM.
As for `c1cc(-c2cn(Cc3ccc4cc(CNCC5CCC5)[nH]c4c3)cn2)c2cn[nH]c2c1` [Example 64, N-(cyclobutylmethyl)-1-[6-[[4-(1H-indazol-4-yl)imidazol-1-yl]methyl]-1H-indol-2-yl]methanamine], in the experiment with Caov-3 cells (setting [1]), the IC50 was found to be 922 nM.
`c1cc(-c2nsc(Cc3ccc4cc(CNCC5CCC5)[nH]c4c3)n2)c2cn[nH]c2c1` [Example 65] displayed an IC50 against METTL3/14 of 16100 nM.
Still for that read-out and setting: the value for `c1cc2cc(-c3cn(Cc4ccc5cc(CNCC6CCC6)[nH]c5c4)cn3)cnc2[nH]1` [Example 134, (cyclobutylmethyl)({6-[(4-{1H-pyrrolo[2,3-b]pyridin-5-yl}-1H-imidazol-1-yl)methyl]-1H-indol-2-yl}methyl)amine] was 6.1 nM.
Take `c1cc(-c2cn(Cc3ccc4cc(CNCC5CCC5)[nH]c4c3)nn2)c2cncn2c1` [Example 135, (cyclobutylmethyl)({6-[(4-{imidazo[1,5-a]pyridin-8-yl}-1H-1,2,3-triazol-1-yl)methyl]-1H-indol-2-yl}methyl)amine]: the IC50 in the experiment on Caov-3 cells (setting [1]) is 269 nM.
With `O=C(NCc1ccc2cc(CNCC3CCC3)[nH]c2c1)c1cnc2[nH]ccc2c1` [Example 137, N-[(2-{[(cyclobutylmethyl)amino]methyl}-1H-indol-6-yl)methyl]-1H-pyrrolo[2,3-b]pyridine-5-carboxamide], the IC50 was 1080 nM in the experiment on Caov-3 cells (setting [1]) and 6.1 nM at METTL3/14.
On METTL3/14, `c1cc2cc(-c3cn(Cc4ccc5cc(CNCC6CCC6)[nH]c5c4)nn3)cnc2[nH]1` [Example 138, (cyclobutylmethyl)({6-[(4-{1H-pyrrolo[2,3-b]pyridin-5-yl}-1H-1,2,3-triazol-1-yl)methyl]-1H-indol-2-yl}methyl)amine] displayed an IC50 of 6.1 nM.
Turning to `COc1cnc(C#N)c(-c2cn(Cc3ccc4cc(CNCC56CC(C5)C6)[nH]c4c3)nn2)c1` [Example 148, 3-[1-({2-[({(Bicyclo [1.1.1]pent-1-yl)methyl}amino)methyl]-1H-indol-6-yl}methyl)-1H-1,2,3-triazol-4-yl]-5-methoxy-2-pyridine-carbonitrile], the IC50 against METTL3/14 was < 6.1 nM.
